Experimental data: US7579475B2, “S-(-)-amlodipine nicotinate and process for the preparation thereof” (Hanlim Pharmaceutical Co., Ltd., priority 2002, dated 2009)

Key:
[1] = Photostability test (incandescent lamp, 3 weeks)
Experimental: 1.0 g of S-(−)-amlodipine besylate prepared, using S-(−)-amlodipine, in accordance with U.S. Pat. No. 4,879,303 and 1.0 g of S-(−)-amlodipine nicotinate dihydrate obtained in Example 1, which were placed in glass schales (100×20 mm), were exposed at 25-30° C. for 3 weeks under an incandescent lamp (220V, 100 W) that was placed at 30 cm above the samples.

[2] = test system: spontaneously hypertensive rats (SHRs); assay: In vivo anti-hypertensive activity in spontaneously hypertensive rats (tail-cuff systolic blood pressure); design: species or system rat; conditions: SHR; for Maximal anti-hypertensive effect (change of systolic blood pressure) / Intensity (maximal effect of S-(−)-amlodipine nicotinate to maximal effect of amlodipine nicotinate) / ED20 (amount necessary for 20% decrease in the blood pressure) / Intensity (reverse ratio of ED20 values relative to amlodipine nicotinate): oral; for Maximal anti-hypertensive effect (change of systolic blood pressure): mean % ± S.E.M.; for Effect on blood pressure (in words): oral, 1, 3 and 10 mg/kg
Experimental: Male SHRs (Charles Rever Co., Japan) aged 13-14 weeks were used.
The SHRs having a systolic blood pressure over 170 mmHg were divided into 7 groups, i.e., Test Groups 1 to 3 (for amlodipine nicotinate), Test Groups 4 to 6 (for S-(−)-amlodipine nicotinate) and a Control Group. Each Test Group and Control Group consisted of 6-8 SHRs (n=6-8).
The test compounds were dissolved in distilled water to prepare test solutions immediately prior to administration. The test solutions of amlodipine nicotinate and S-(−)-amlodipine nicotinate were prepared by dissolving 1, 3, and 10 mg/kg in distilled water (0.5 ml/100 g rat), respectively, and then administered orally to each Test Group. The vehicle (distilled water) was administered to Control Group.
The systolic blood pressure was measured with Multichannel 8000 (TSE Co., Germany), using a tail-cuff method. That is, the systolic blood pressures of a tail artery of each rat were measured before the administration of the test solutions and after 2, 4, 6, 8, 10, and 24 hours from the administration thereof. In order to facilitate the measurement of blood pressures, the test animals of each Group underwent warming at 37° C. for about 10 minutes before the measurements.
Statistical analysis of the test results were conducted by an unpaired t-test and ANOVA (one-way analysis of variance) with Sigma Stat program (Jandel Co., USA). The secondary evaluations were conducted by a Dunnett's multiple comparison test.

[3] = listed as S-(−)-Amlodipine nicotinate, dihydrate

Row | Compound | Water contents absorbed during the photostability test ([1]; 25-30° C., 3 weeks under incandescent lamp) | Maximal anti-hypertensive effect (change of systolic blood pressure) ([2]; 1 mg/kg) | Intensity (maximal effect of S-(−)-amlodipine nicotinate to maximal effect of amlodipine nicotinate) ([2]; 3 mg/kg) | Maximal anti-hypertensive effect (change of systolic blood pressure) ([2]; 3 mg/kg) | Intensity (maximal effect of S-(−)-amlodipine nicotinate to maximal effect of amlodipine nicotinate) ([2]; 10 mg/kg) | Maximal anti-hypertensive effect (change of systolic blood pressure) ([2]; 10 mg/kg) | Effect on blood pressure (in words) [2] | ED20 (amount necessary for 20% decrease in the blood pressure) ([2]; dihydrate) | Intensity (reverse ratio of ED20 values relative to amlodipine nicotinate) ([2]; dihydrate) | ED20 (amount necessary for 20% decrease in the blood pressure) [2, 3] | Intensity (reverse ratio of ED20 values relative to amlodipine nicotinate) [2, 3] | Difference in 1H-NMR before and after photostability test [1] | Photostability (overall conclusion) [1] | ED20 (amount necessary for 20% decrease in the blood pressure) [2] | Intensity (reverse ratio of ED20 values relative to amlodipine nicotinate) [2] | ED20 (amount necessary for 20% decrease in the blood pressure) ([2]; listed as Amlodipine nicotinate)
1 | CCOC(=O)C1=C(COCCN)NC(C)=C(C(=O)OC)[C@@H]1c1ccccc1Cl.O=S(=O)(O)c1ccccc1 [S-(−)-amlodipine besylate] | 1.5-2.5 |  |  |  |  |  |  |  |  |  |  |  |  |  |  | 
2 | CCOC(=O)C1=C(COCCN)NC(C)=C(C(=O)OC)C1c1ccccc1Cl (stereo not drawn) [S-(−)-amlodipine nicotinate, S-(−)-amlodipine nicotinate dihydrate] |  | −12.4 ± 1.73% | 1.06 | −28.3 ± 3.31% | 1.07 | −43.6 ± 1.65% | dose-dependently reduced blood pressures | 1.91 ± 0.49 mg/kg | about 1.15 | 1.91 ± 0.49 mg/kg | 1.15 | no significant difference | improved photostability |  |  | 
3 | CCOC(=O)C1=C(COCCN)NC(C)=C(C(=O)OC)[C@@H]1c1ccccc1Cl.O=C(O)c1cccnc1 [amlodipine nicotinate] |  | −10.20 ± 2.71% |  | −26.8 ± 3.22% |  | −40.9 ± 2.08% | dose-dependently reduced blood pressures |  |  |  |  |  |  | 2.19 ± 0.57 mg/kg | 1.00 | 2.19 ± 0.57 mg/kg
